Test results from US20200262787A1, “OPTICAL COMPONENT FORMING COMPOSITION AND CURED PRODUCT THEREOF” (Mitsubishi Gas Chemical Company, Inc., priority 2016, published 2020).

assay: Organic solvent solubility test of compound; type: physicochemical; settings: compound in propylene glycol monomethyl ether acetate, 23° C., ultrasonic waves 30 minutes, visual
Description: The solubility of the compound in propylene glycol monomethyl ether acetate was measured as the solubility of the compound in an organic solvent.
A: 5.0% by mass Amount of dissolution
C: Amount of dissolution <3.0% by mass

| Structure (SMILES) | Solubility in organic solvent |
| --- | --- |
| CC(C)(C)OC(=O)COc1ccc([Te]c2ccc(OCC(=O)OC(C)(C)C)c(-c3ccccc3)c2)cc1-c1ccccc1 [Ph-TDP-BOC] | A (5.0% by mass Amount of dissolution) |
| Oc1ccc([Te](Cl)(Cl)c2ccc(O)c(-c3ccccc3)c2)cc1-c1ccccc1 [Ph-BHPT, bis(3-phenyl-4-hydroxyphenyl)tellurium dichloride] | A (5.0% by mass Amount of dissolution) |
| CC1(OC(=O)COc2ccc([Te](Cl)(Cl)c3ccc(OCC(=O)OC4(C)C5CC6CC(C5)CC4C6)cc3OCC(=O)OC3(C)C4CC5CC(C4)CC3C5)cc2)C2CC3CC(C2)CC1C3 (centres unmarked) [CCHT-ADBAC] | A (5.0% by mass Amount of dissolution) |
| CC(C)(C)OC(=O)Oc1ccc([Te](Cl)(Cl)c2ccc(OC(=O)OC(C)(C)C)cc2)cc1 [BHPT-BOC, bis(tert-butoxycarboxyphenyl)tellurium dichloride] | A (5.0% by mass Amount of dissolution) |
| Oc1ccc([Te]c2ccc(O)c(-c3ccccc3)c2)cc1-c1ccccc1 [Ph-TDP, bis(3-phenyl-4-hydroxyphenyl)tellurium] | A (5.0% by mass Amount of dissolution) |
| CCOC(C)Oc1ccc([Te](Cl)(Cl)c2ccc(OC(C)OCC)c(-c3ccccc3)c2)cc1-c1ccccc1 (centres unmarked) [Ph-TDP-EE] | A (5.0% by mass Amount of dissolution) |
| Oc1ccc([Te](Cl)(Cl)c2ccc(O)cc2)cc1 [BHPT, bis(4-hydroxyphenyl)tellurium dichloride] | A (5.0% by mass Amount of dissolution) |
| CC1(OC(=O)COc2ccc([Te](Cl)(Cl)c3ccc(OCC(=O)OC4(C)C5CC6CC(C5)CC4C6)cc3)cc2)C2CC3CC(C2)CC1C3 (centres unmarked) [BHPT-ADBAC, bis(4-(2-methyl-2-adamantyloxycarbonylmethoxy)phenyl)tellurium dichloride] | A (5.0% by mass Amount of dissolution) |
| CC1(OC(=O)COc2ccc([Te]c3ccc(OCC(=O)OC4(C)C5CC6CC(C5)CC4C6)c(-c4ccccc4)c3)cc2-c2ccccc2)C2CC3CC(C2)CC1C3 (centres unmarked) [Ph-TDP-ADBAC] | A (5.0% by mass Amount of dissolution) |
| CC1(OC(=O)COc2ccc([Te](Cl)(Cl)c3ccc(OCC(=O)OC4(C)C5CC6CC(C5)CC4C6)c(-c4ccccc4)c3)cc2-c2ccccc2)C2CC3CC(C2)CC1C3 (centres unmarked) [Ph-BHPT-ADBAC] | A (5.0% by mass Amount of dissolution) |
| CCOC(C)Oc1ccc([Te](Cl)(Cl)c2ccc(OC(C)OCC)cc2)cc1 (centres unmarked) [BHPT-EE, bis(ethoxyethylphenyl)tellurium dichloride] | A (5.0% by mass Amount of dissolution) |
| Oc1ccc([Te](Cl)(Cl)c2ccc(O)cc2O)cc1 [CCHT, (2,4-dihydroxyphenyl) (4-hydroxyphenyl)tellurium dichloride] | A (5.0% by mass Amount of dissolution) |
| Oc1ccc([Te]c2ccc(O)cc2)cc1 [TDP, 4,4′-telluriumdiphenol] | A (5.0% by mass Amount of dissolution) |
| CC1(OC(=O)COc2ccc([Te]c3ccc(OCC(=O)OC4(C)C5CC6CC(C5)CC4C6)cc3)cc2)C2CC3CC(C2)CC1C3 (centres unmarked) [TDP-ADBAC] | A (5.0% by mass Amount of dissolution) |
